Where “and” joins values, the source holds several entries; their conditions need not be identical. Equal values may be shown once.
Experiments:
MRSA = experiment: MIC in CAMHB, 96-well plate (10^5 to 10^2 CFU/mL in 24 hours); type: cell-based, methicillin-resistant Staphylococcus aureus; details: Staphylococcus aureus, MRSA
Protocol: (§1) To determine the MIC of polyamine compounds, the protocol described herein was used.
In brief, a 0.5 McFarland of each bacterial isolate was made. A 0.5 McFarland is a measure of turbidity in a liquid sample that contains approximately 1×10̂^8 CFU/mL. The 0.5 McFarland standard was diluted in cation adjusted Mueller Hinton Broth (CAMHB), and […], of broth were added to a well of a 96-well plate. In addition, 50 μL of CAMHB that contained a desired concentration of antimicrobial were also added to the well for a final volume of 100 and a final concentration of approximately 5×10^4 CFU/well (which equated to approximately 5×10^5 CFU/mL). Each well contained a desired amount of polyamine compound in order to experimentally determine the MIC. Each 96-well plate was incubated at 37° C. for 24 hours. The contents of each well were plated on tryptic soy agar (TSA). TSA plates were incubated for 37° C. for 24 hours after which the number of CFU were counted and used to calculate the CFU/mL that remained after exposure to varying concentrations of compound. This procedure was repeated n=8 times for each concentration of antimicrobial. […]

A. baumannii = experiment: as above; type: cell-based, Acinetobacter baumannii
Protocol: as §1
In brief, a 0.5 McFarland of each bacterial isolate was made. A 0.5 McFarland is a measure of turbidity in a liquid sample that contains approximately 1×10̂^8 CFU/mL. The 0.5 McFarland standard was diluted in cation adjusted Mueller Hinton Broth (CAMHB), and […], of broth were added to a well of a 96-well plate. In addition, 50 μL of CAMHB that contained a desired concentration of antimicrobial were also added to the well for a final volume of 100 and a final concentration of approximately 5×10^4 CFU/well (which equated to approximately 5×10^5 CFU/mL). Each well contained a desired amount of polyamine compound in order to experimentally determine the MIC. Each 96-well plate was incubated at 37° C. for 24 hours. The contents of each well were plated on tryptic soy agar (TSA). TSA plates were incubated for 37° C. for 24 hours after which the number of CFU were counted and used to calculate the CFU/mL that remained after exposure to varying concentrations of compound. This procedure was repeated n=8 times for each concentration of antimicrobial.
A 0.5 McFarland of A. baumannii is made. A 0.5 McFarland is a measure of turbidity in a liquid sample that contains approximately 7.5×10^7 CFU/mL. The 0.5 McFarland standard is diluted in CAMHB and 50 μL of broth is added to a well of a 96-well plate. In addition, 50 μL of CAMHB that contains a desired concentration of antimicrobial is added to the well for a final volume of 100 μL and a final concentration of approximately 5×10^4 CFU/well (which equates to approximately 5×10^5 CFU/mL). Each well contains a desired amount of CZ compound in order to experimentally determine the MIC. Each 96-well plate is incubated at 37° C. for 24 hours. The contents of each well is plated on tryptic soy agar (TSA). TSA plates is incubated at 37° C. for 24 hours after which the number of CFUs is counted and used to calculate the CFU/mL that remain after exposure to varying concentrations of compound. This procedure is repeated n=8 times for each concentration of antimicrobial. […]

MRSA biofilm = experiment: EBEC, high number biofilms on PEEK membranes (10^9 to 10^2 CFU/PEEK membrane in 24 hours); type: cell-based, methicillin-resistant Staphylococcus aureus; details: for EBEC, MRSA: Table 4
Protocol: In addition to determining the MIC and the MBEC of polyamine compounds against planktonic bacteria and low number biofilms, our group wanted to determine the efficacy of polyamine compounds against high number biofilms. To do so, biofilms were grown on the surface of polyetheretherketone (PEEK) membranes using a membrane biofilm reactor. This reactor is similar to the CDC biofilm reactor, but rather than growing biofilms on coupon surfaces, the reactor was modified to hold PEEK membranes. In short, to grow biofilms within this system, 500 mL of brain heart infusion (BHI) broth were inoculated with 1 mL of a 0.5 McFarland. The reactor was placed on a hot plate set at 34° C. and the bacteria were grown under batch conditions for 24 hours. Following this protocol, biofilms typically grow to 10^9 CFU/PEEK membrane. […] A solution of 10% BHI was then flowed through the reactor at a rate of 6.94 mL/min for an additional 24 hours. PEEK membranes were then removed and placed into 2 mL of CAMHB that contained a desired concentration of polyamine compound or antibiotic. The EBEC was defined as the concentration of antimicrobial required to reduce a biofilm from approximately 10^9 CFU/PEEK membrane to approximately 10^2 CFU/PEEK membrane in a 24-hour period.
In addition to determining the MIC and the MBEC of compounds against planktonic bacteria and low number biofilms, the efficacy of the compounds of the invention against high number biofilms is determined. To do so, biofilms are grown on the surface of PEEK membranes using a membrane biofilm reactor (Williams, D. L., Haymond, B. S. & Bloebaum, R. D. Use of delrin plastic in a modified CDC biofilm reactor. Res J Microbiol 6, 425-429 (2011); Williams, D. L., Woodbury, K. L., Haymond, B. S., Parker, A. E. & Bloebaum, R. D. A modified CDC biofilm reactor to produce mature biofilms on the surface of PEEK membranes for an in vivo animal model application. Curr Microbiol 62, 1657-1663 (2011); Williams, D. L. et al., In Vivo Efficacy of a Silicone—Cationic Steroid Antimicrobial Coating to Prevent Implant-Related Infection. Biomaterials 33, 8641-8656 (2012); Williams, D. L. et al., Experimental model of biofilm implant-related osteomyelitis to test combination biomaterials using biofilms as initial inocula. J Biomed Mat Res A 100, 1888-1900 (2012)). This reactor is similar to the CDC biofilm reactor, but rather than growing biofilms on coupon surfaces, the reactor was modified to hold PEEK membranes. In short, to grow biofilms within this system, 500 mL of brain heart infusion (BHI) broth is inoculated with 1 mL of a 0.5 McFarland. The reactor is placed on a hot plate set at 34° C. and the bacteria grown under batch conditions for 24 hours. A solution of 10% BHI will then be flowed through the reactor at a rate of 6.94 mL/min for an additional 24 hours. Following this protocol, biofilms typically grow to 10^9 CFU/PEEK membrane. PEEK membranes is removed and placed into 2 mL of CAMHB that contain a desired concentration of the test compound. The EBEC is defined as the concentration of antimicrobial required to reduce a biofilm from approximately 10^9 CFU/PEEK membrane to approximately 10^2 CFU/PEEK membrane in a 24-hour period.
EBEC data were collected to determine the efficacy of CZ-52, CZ-58 and traditional antibiotics against high number biofilms containing approximately 10^9 CFU grown on the surface of a polyetheretherketone (PEEK) membrane.

[1] = Acinetobacter baumannii, Table 3A
[2] = Acinetobacter baumannii, Table 4

| Molecule | MIC (MRSA; Table 3A, first MRSA column) | MIC (MRSA; Table 4) | MIC (A. baumannii; [1]) | MIC (A. baumannii; [2]) | EBEC, MRSA (MRSA biofilm) | MIC, A. baumannii (A. baumannii; Table 3A) | MIC (A. baumannii; Table 4) | MIC, A. baumannii (A. baumannii; Table 4) | reduction of MRSA biofilms (MRSA biofilm; at 250 μg/mL, 24-hour period) | MIC (MRSA; Table 5, class symbols) |
| --- | --- | --- | --- | --- | --- | --- | --- | --- | --- | --- |
| NCCCNCCCNCc1cccc(CNCCCNCCCN)c1 [CZ-25] | 40 µg/mL | 40 µg/mL and 110 µM | 150 µg/mL | 150 µg/mL and 411 µM | > 5,000 μg/mL and 13,715 μM | – | – | – | – | – |
| Polymyxin B sulfate [reference compound] | – | – | – | – | – | 2 µg/mL | 0.7 µM | 1 µg/mL | – | – |
| NCCCNCCCNCc1cc(CNCCCNCCCN)cc(CNCCCNCCCN)c1 [CZ-52] | 3 µg/mL | 3 µg/mL and 6 µM | ~25 µg/mL | 400 µg/mL and 800 µM | 250 μg/mL and 500 μM | – | – | – | greater than 7 log10 units | – |
| NCCCNCCCNCc1cc(CNCCCNCCCN)cc(-c2ccccc2)c1 [CZ-58] | – | 6 µg/mL and 13.6 µM | – | 30 µg/mL and 68 µM | 1,500 μg/mL and 3,403 μM | – | – | – | – | < 50 µM |
